Experiments:
Format in all cases: in vivo, Male Wistar strain rats
[1] = system: GM-induced nephritis rats; experiment: BUN, serum creatinine and creatinine clearance in GM-induced nephritis rats; details: 8th day; for Effect on BUN level (in words): GM-induced nephritis rats; for BUN / Creatinine clearance / Serum creatinine: mean ± S.E. of 8 to 9 rats
Procedure: (§1) Gum Arabic was dissolved in water and filtered. The filtrate was spray-dried at about 120° C. to give the GA used in this experiment. GA was dissolved in tap water to prepare a 7.5% GA solution (7.5 g/100 mL, 7.5% GA). The 7.5% GA solution was used for oral administration in drinking water. Gentamicin sulfate (GM) was purchased from Sigma Chemical Co. and used as its saline solution. Prednisolone (PRD) was purchased from Sigma Chemical Co.
(§2) Male Wistar strain rats weighing 200-220 g (n=8 to 9 per group) were provided by SLC (Japan SLC, Hamamatsu). They were maintained in an air-conditioned room with lighting from 7 a.m. to 7 p.m. The room temperature (about 23° C.) and humidity (about 60%) were controlled automatically. They were kept for one week before treatment. Laboratory chows (Labo MR Stock, Nihon Nosan Kogyo K.K., Yokohama) and drinking water were freely available.
(§3) Nephritis was induced in rats by daily intraperitoneal injections of GM (80 mg/kg, i.p.) at 10:00 a.m. for 8 consecutive days. Animals injected with saline (1 mL/kg, i.p.) served as normal control. GA (7.5% GA) via the drinking water was administered for 8 consecutive days.
(§4) Rats were randomly assigned to the following eight groups of 8 to 9 rats each:
(§5) Group 1 (Normal): received daily intraperitoneal injections of saline (1 mL/kg, i.p.) for 8 days with tap water as drinking water.
(§6) Group 2 (7.5% GA): received daily saline (1 mL/kg, i.p.) and 7.5% GA via drinking water for 8 days.
(§7) Group 3 (GM): received daily GM (80 mg/kg, i.p.) for 8 days with tap water as drinking water.
(§8) Group 4 (GM+7.5% GA): received daily GM (80 mg/kg, i.p.) and 7.5% GA via the drinking water for 8 days.
(§9) Group 5 (GM+PRD/water): received daily PRD/water (2 mg/kg, p.o.) at 1 hr before daily GM (80 mg/kg, i.p.) administration for 8 days with tap water as drinking water.
(§10) Group 6 (GM+PRD/water+7.5% GA): received daily PRD/water (2 mg/kg, p.o.) at 1 hr before daily GM (80 mg/kg, i.p.) administration and 7.5% GA via the drinking water for 8 days.
(§11) 24 hr urine samples were obtained by keeping each animal in an individual metabolic cage for 24 hr at 10:00 a.m. on the 8th day. Rats were fasted for 1 day before urine collection. The collected urine was then centrifuged at 1,600×g for 10 min, and the supernatant was used for protein determination. Immediately after the urine collection, blood sample was taken from abdominal veins. The blood was centrifuged at 1,600×g for 10 min to give serum for the determination of blood urea nitrogen (BUN), serum creatinine and creatinine clearance.
(§12) The urinary protein excretion was determined by the method of Kingsbury et al (The Journal of Laboratory and Clinical Medicine, 11, 981-989, 1926) and expressed as mg/day. Briefly, a 3% solution of sulfosalicylic acid was added to a diluted urine sample, and placed at room temperature for 10 minutes. Then concentrations of urinary protein were determined from absorbance at 400 nm, and the urinary protein excretion (mg/day) was calculated from the volume of 24 hr urine. Commercial kits (Wako Pure Chemical Industries, Ltd.) were used to assay BUN, creatinine and creatinine clearance in serum with the following assay kits: Urea nitrogen B and Creatinine.
(§13) The experimental data were tested for statistical significant differences by means of Bonferroni/Dunn's method (Multiple Range Test).
(§14) PRD (2 mg/kg, p.o.) was orally administered in a form of suspension (0.2 mL/100 g weight of rat) in tap water (PRD/water) 1 hr before GM (80 mg/kg, i.p.) administration to rats of group 5 (GM+PRD/water) and group 6 (GM+PRD/water+7.5% GA). Group 5 received tap water as drinking water. Group 6 received 7.5% GA as drinking water.

[2] = system: GM-induced nephritis rats; experiment: Urine volume and urinary protein in GM-induced nephritis rats; details: 8th day; for Effect on urinary protein (in words) / Effect on urine volume (in words): GM-induced nephritis rats; for Urinary protein / Urine volume: mean ± S.E. of 8 to 9 rats, 7.5% GA via drinking water
Procedure: as §1, §2, §3, §4, §5, §6, §7, §8, §9, §10, §11, §12, §13, §14

[3] = system: GM-induced nephritis rats; experiment: Organ wet weight / body weight ratio in GM-induced nephritis rats; details: for Adrenal gland weight / Kidney weight / Liver weight / Spleen weight / Thymus weight: 8th day, mean ± S.E. of 8 to 9 rats, GM 80 mg/kg i.p., 7.5% GA via drinking water
Procedure: as §1, §2, §3, §4, §5, §6, §7, §8, §9, §10
On the last day, the organs (adrenal gland, thymus, spleen, kidney and liver) were isolated from the rats, and the ratio of each organ wet weight (mg)/body weight (100 g) was determined.
as §13, §14

[4] = Table 1, GM 80 mg/kg i.p. 8 days, 7.5% GA via drinking water, 7.5% GA group got saline, no GM
[5] = Table 4, GM 80 mg/kg i.p., PRD 2 mg/kg p.o. 1 hr before GM, 7.5% GA via drinking water
[6] = Table 2, GM 80 mg/kg i.p. 8 days, 7.5% GA group got saline, no GM
[7] = Table 5, GM 80 mg/kg i.p., PRD 2 mg/kg p.o. 1 hr before GM

Question: With C[C@]12C=CC(=O)C=C1CC[C@@H]1[C@@H]2[C@@H](O)C[C@@]2(C)[C@H]1CC[C@]2(O)C(=O)CO [PRD, Prednisolone] as the compound, how does the “Effect on BUN level (in words)” value [1] read?
Answer: significant protective effect on increments of BUN level

Question: And the “Effect on urinary protein (in words)” value [2]?
Answer: significantly inhibited the increment of urinary protein

Question: And the “Effect on urine volume (in words)” value [2]?
Answer: did not show any effects on the increment of urine volume

Question: What about the “Effect on weight of thymus (in words)” value ([3]; rat, in vivo) of the same compound?
Answer: further decreased

Question: Gentamicin sulfate [GM] was tested. Which “Effect on BUN level (in words)” value [1] did it give?
Answer: markedly increased

Question: What about the BUN ([1]; Table 1, GM 80 mg/kg i.p. 8 days, 7.5% GA via drinking water 8 days, 7.5% GA group got saline, no GM) of the same compound?
Answer: 78.0 ± 11.9 mg/dL

Question: And the Creatinine clearance [1, 4]?
Answer: 0.19 ± 0.10 mL/min

Question: What about the Serum creatinine [1, 4] of the same compound?
Answer: 2.36 ± 0.41 mg/dL

Question: What about the BUN [1, 5] of the same compound?
Answer: 78.0 ± 11.9 mg/dL

Question: And the Creatinine clearance [1, 5]?
Answer: 0.19 ± 0.10 mL/min

Question: And the Serum creatinine [1, 5]?
Answer: 2.36 ± 0.41 mg/dL

Question: And the “Effect on urinary protein (in words)” value [2]?
Answer: increased

Question: And the “Effect on urine volume (in words)” value [2]?
Answer: increased

Question: And the Urinary protein [2, 6]?
Answer: 26.7 ± 3.3 mg/24 hr

Question: What about the Urine volume [2, 6] of the same compound?
Answer: 43.1 ± 4.3 mL/24 hr

Question: What about the Urinary protein [2, 7] of the same compound?
Answer: 26.7 ± 3.3 mg/24 hr

Question: What about the Urine volume [2, 7] of the same compound?
Answer: 43.1 ± 4.3 mL/24 hr

Question: What about the “Effect on kidney weight ratio (in words)” value ([3]; GM-induced nephritis rats, last day) of the same compound?
Answer: slightly increased

Question: What about the “Effect on weight of thymus (in words)” value ([3]; GM-induced nephritis rats, last day, side-effect of PRD) of the same compound?
Answer: tendency to decrease

Question: And the Adrenal gland weight ([3]; Table 3)?
Answer: 23.5 ± 1.4 mg/100 g of body weight

Question: What about the Kidney weight ([3]; Table 3) of the same compound?
Answer: 0.89 ± 0.03 g/100 g of body weight

Question: And the Liver weight ([3]; Table 3)?
Answer: 2.95 ± 0.07 g/100 g of body weight

Question: And the Spleen weight ([3]; Table 3)?
Answer: 209.4 ± 10.8 mg/100 g of body weight

Question: What about the Thymus weight ([3]; Table 3) of the same compound?
Answer: 223.5 ± 15.2 mg/100 g of body weight

Question: What about the Adrenal gland weight ([3]; Table 6, PRD 2 mg/kg p.o.) of the same compound?
Answer: 23.5 ± 1.4 mg/100 g of body weight

Question: What about the Kidney weight ([3]; Table 6, PRD 2 mg/kg p.o.) of the same compound?
Answer: 0.89 ± 0.03 g/100 g of body weight

Question: And the Liver weight ([3]; Table 6, PRD 2 mg/kg p.o.)?
Answer: 2.95 ± 0.07 g/100 g of body weight

Question: What about the Spleen weight ([3]; Table 6, PRD 2 mg/kg p.o.) of the same compound?
Answer: 209.4 ± 10.8 mg/100 g of body weight

Question: What about the Thymus weight ([3]; Table 6, PRD 2 mg/kg p.o.) of the same compound?
Answer: 223.5 ± 15.2 mg/100 g of body weight

Source: US20090060944A1, “Enhancer Of The Effect Of Adrenocorticoid,Comprising Gum Arabic” (priority 2004, published 2009)
